The results in this text go back to patent publication US20260274814A1, “THIENYL COMPOUNDS FOR THE TREATMENT OF A CENTRAL NERVOUS SYSTEM DISEASE OR DISORDER” (Coreterra Therapeutics, Inc., priority 2023, published 2026).

SMILES strings stand for the structures. Where a name gives a salt, the structure may show the parent alone. Read-outs that look alike come from different tables or passages of the source.

The assay has as its system mice. Briefly: Neuropharmacological Assay (SmartCube): automated behavioral signature of compound-treated mice compared with a database of reference drug classes. Type of assay: in vivo. The note with it: for MED (minimal effective dose) / minimal effective dose / MED: i.p., that dose is shown; for minimal effective dose: Mus musculus, ip. The method in brief:
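Compounds in N-methyl-2-pyrrolidone/polyethylene glycol/propylene glycol were given i.p. 15 min before testing, at 3 doses; values shown are for 3.0 mg/kg. Video-captured behaviour was matched by algorithm against reference drug classes, giving a probability per class. MED: lowest dose reaching ≥45% total activity.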

Where [1] appears, read: dose having 45% or more total activity in SmartCube, if only one dose was tested, hydrochloride.
[2] abbreviates: probability that activity matches this class of agents, 3.0 mg/kg i.p., 15 min before test.
The mark [3] stands for this setting: probability that activity matches this class of agents, 3.0 mg/kg i.p., 15 min before test, hydrochloride, 3 mg/kg.
[4] abbreviates: minimal effective dose: dose having 45% or more total activity in SmartCube, if only one dose tested, read-out: MED.
Setting [5] is: SmartCube class probability, 3.0 mg/kg i.p., 15 min before test.
Where [6] appears, read: SmartCube probability class, 3.0 mg/kg dose, i.p. 15 min before the behavioral test.
Setting [7] is: SmartCube probability class, 3.0 mg/kg dose, i.p. 15 min before the behavioral test, hydrochloride, 3 mg/kg.
Where [8] appears, read: minimal effective dose: dose having 45% or more total activity in SmartCube, if only one dose was tested, hydrochloride.
The mark [9] stands for this setting: dose having 45% or more total activity in SmartCube, if only one dose was tested, read-out: MED (minimal effective dose).
[10] abbreviates: probability that activity matches this class of agents, 3.0 mg/kg i.p., 15 min before test, 3 mg/kg.
The mark [11] stands for this setting: SmartCube class probability, 3.0 mg/kg i.p., 15 min before test, 3 mg/kg.

As for `CN(C)C1CCc2ccsc2C1.Cl` (single isomer, unassigned) [Compound 15, N,N-dimethyl-4,5,6,7-tetrahydrobenzothiophen-6-amine hydrochloride], the “MED (minimal effective dose)” value under setting [1] was 0.3 mpk. Moreover, under setting [2], the AD result is reported as “ND (^ <4%)”, the AG entry is listed as “ND (^ <4%)”, the AN result is given as “ND (^ <4%)” and the HL entry is reported as “ND (^ <4%)”. Also, under setting [2], the MS entry is reported as “ND (^ <4%)”, the PS entry is “ND (^ <4%)”, the SH entry is reported as “ND (^ <4%)” and the UK result was “ND (^ <4%)”. Moreover, under setting [3], the AP result is listed as “+ (≥4%)”, the AX entry is listed as “+++ (≥49%)” and the CE entry was “++ (≥24%)”.
Take `CNC1COc2c(sc(C)c2C)C1` (stereo not drawn) [Compound 202, N, 2,3-trimethyl-6,7-dihydro-5H-thieno[3,2-b]pyran-6-amine hydrochloride]: the minimal effective dose under setting [4] worked out at 3 mg/kg. Under setting [5], the AD entry is reported as “+ (≥4%)”, the AG result was “ND (^ <4%)”, the AN entry is given as “ND (^ <4%)” and the AP entry is listed as “++ (≥24%)”. Under setting [5], the AX entry is recorded as “++ (≥24%)”, the CE result is reported as “ND (^ <4%)”, the HL entry is recorded as “ND (^ <4%)” and the MS entry is “ND (^ <4%)”. Further, under setting [5], the PS entry is reported as “ND (^ <4%)”, the SH entry is reported as “ND (^ <4%)” and the UK result was “ND (^ <4%)”.
For the compound `NC1COc2c(C3CC3)csc2C1` (single isomer, unassigned) [Compound 330, 3-cyclopropyl-6,7-dihydro-5H-thieno[3,2-b]pyran-6-amine hydrochloride], under setting [6], the AG entry was “ND (^ <4%)”, the AN entry is “ND (^ <4%)”, the AP result is “ND (^ <4%)” and the AX result is given as “ND (^ <4%)”. In addition, under setting [6], the CE entry is “ND (^ <4%)”, the HL entry is given as “ND (^ <4%)”, the MS result is given as “ND (^ <4%)” and the PS result is “ND (^ <4%)”. Further, the SH result under setting [6] is “ND (^ <4%)”. Under setting [7], the AD entry is “ND (^ <4%)” and the UK result is listed as “+ (≥4%)”. This compound displayed an MED under setting [8] above 3 mpk.
As for `CNC1CCc2ccsc2C1.Cl` (single isomer, unassigned) [Compound 10, N-methyl-4,5,6,7-tetrahydrobenzothiophen-6-amine hydrochloride], the “MED (minimal effective dose)” value under setting [1] worked out at 0.3 mpk. For the same compound, under setting [2], the AD entry is given as “++ (≥24%)”, the AG result is recorded as “ND (^ <4%)”, the AN result is reported as “ND (^ <4%)” and the AP result is “++ (≥24%)”. Under setting [2], the MS result is on record as “ND (^ <4%)”, the SH result is listed as “ND (^ <4%)” and the UK entry is recorded as “ND (^ <4%)”. Moreover, under setting [3], the AX entry is “ND (^ <4%)”, the CE result is “ND (^ <4%)”, the HL result is reported as “ND (^ <4%)” and the PS result is “ND (^ <4%)”.
In the case of `CNC1CCc2cc(C(F)(F)F)sc2C1` (single isomer, unassigned) [Compound 38, N-methyl-2-(trifluoromethyl)-4,5,6,7-tetrahydrobenzothiophen-6-amine], under setting [9], the minimal effective dose was 3 mg/kg. Moreover, under setting [2], the AG entry is reported as “ND (^ <4%)”, the AN result is reported as “ND (^ <4%)”, the AX result is given as “ND (^ <4%)” and the CE entry is “ND (^ <4%)”. Besides, under setting [2], the HL entry was “ND (^ <4%)”, the MS result is “ND (^ <4%)”, the PS result is on record as “ND (^ <4%)” and the SH entry was “ND (^ <4%)”. Under setting [10], the AD result is given as “ND (^ <4%)”, the AP result is “ND (^ <4%)” and the UK result is reported as “++ (≥24%)”.
In the case of `CNC1Cc2scc(C(F)(F)F)c2C1` (single isomer, unassigned) [Compound 315, N-methyl-3-(trifluoromethyl)-5,6-dihydro-4H-cyclopenta[b]thiophen-5-amine hydrochloride], under setting [6], the AD result is on record as “ND (^ <4%)”, the AG entry is reported as “ND (^ <4%)”, the AN entry is on record as “ND (^ <4%)” and the CE result is given as “ND (^ <4%)”. Also, under setting [6], the HL result is “ND (^ <4%)”, the MS entry is “ND (^ <4%)”, the PS entry is recorded as “ND (^ <4%)” and the SH entry is listed as “ND (^ <4%)”. Under setting [7], the AP result is reported as “+ (≥4%)”, the AX result is reported as “++++ (≥74%)” and the UK result was “ND (^ <4%)”. The compound further came in with an MED under setting [8] of 3 mpk.
`CNC1(C)CCc2cscc2C1` (single isomer, unassigned; enantiomer 2) [Compound 102, N, 5-dimethyl-6,7-dihydro-4H-2-benzothiophen-5-amine hydrochloride enantiomer 2]: the “MED (minimal effective dose)” value (dose having 45% or more total activity in SmartCube, if only one dose was tested) was 1 mpk. Also, under setting [2], the AD entry is “++++ (≥74%)”, the AG entry is “ND (^ <4%)”, the AN result is “ND (^ <4%)” and the AP entry is on record as “ND (^ <4%)”. Under setting [2], the AX result is “ND (^ <4%)”, the CE entry is “ND (^ <4%)”, the HL entry is reported as “ND (^ <4%)” and the MS result was “ND (^ <4%)”. Also, under setting [2], the SH result was “ND (^ <4%)” and the UK entry is recorded as “ND (^ <4%)”. In addition, under setting [10], the PS result was “+ (≥4%)”.
Take `CNC1CCc2c(sc(Cl)c2C)C1` (stereo not drawn) [Compound 92, 2-chloro-N, 3-dimethyl-4,5,6,7-tetrahydrobenzothiophen-6-amine hydrochloride]: the minimal effective dose under setting [9] worked out at 3 mg/kg. For the same compound, under setting [2], the AD result is given as “++++ (≥74%)”, the AG result is “ND (^ <4%)”, the AN result is “ND (^ <4%)” and the AP entry was “ND (^ <4%)”. Moreover, under setting [2], the AX entry is on record as “ND (^ <4%)”, the CE entry is recorded as “ND (^ <4%)”, the HL result is reported as “ND (^ <4%)” and the MS entry is reported as “ND (^ <4%)”. Besides, under setting [2], the PS result is on record as “ND (^ <4%)”, the SH entry is reported as “ND (^ <4%)” and the UK result is on record as “ND (^ <4%)”.
`CNC1(C)COc2c(C)csc2C1.Cl` (stereo not drawn) [Compound 240, N, 3,6-trimethyl-6,7-dihydro-5H-thieno[3,2-b]pyran-6-amine hydroachloride]: under setting [5], the AG entry is given as “ND (^ <4%)”, the AN result is given as “ND (^ <4%)”, the AP entry is “ND (^ <4%)” and the AX entry was “ND (^ <4%)”. In addition, under setting [5], the CE result was “ND (^ <4%)”, the HL entry is “ND (^ <4%)”, the MS entry is given as “ND (^ <4%)” and the PS entry is recorded as “ND (^ <4%)”. Moreover, under setting [5], the SH entry was “ND (^ <4%)”. Also, under setting [11], the AD entry is reported as “+ (≥4%)” and the UK result is reported as “+++ (≥49%)”. The compound also had an MED (minimal effective dose: dose having 45% or more total activity in SmartCube, if only one dose tested) of 3 mpk.
With `CNC1CCCc2ccsc2C1.Cl` (single isomer, unassigned) [Compound 26, N-methyl-5,6,7,8-tetrahydro-4H-cyclohepta[b]thiophen-7-amine hydrochloride], the “MED (minimal effective dose)” value under setting [1] was 3.0 mpk. Further, under setting [2], the AD entry is “ND (^ <4%)”, the AG result was “ND (^ <4%)”, the AN result was “ND (^ <4%)” and the AX entry was “ND (^ <4%)”. Further, under setting [2], the HL entry was “ND (^ <4%)”, the MS result is “ND (^ <4%)” and the PS entry is on record as “ND (^ <4%)”. Moreover, under setting [3], the AP result is reported as “ND (^ <4%)”, the CE entry is given as “+ (≥4%)”, the SH result is recorded as “+ (≥4%)” and the UK entry was “++ (≥24%)”.
On to `CNC1COc2c(csc2C(F)(F)F)C1` (stereo not drawn) [Compound 260, N-methyl-7-(trifluoromethyl)-3,4-dihydro-2H-thieno[3,4-b]pyran-3-amine hydrochloride], for which the minimal effective dose under setting [4] turned out to be 3 mg/kg. Under setting [5], the AD entry was “+ (≥4%)”, the AG result is “ND (^ <4%)”, the AN result was “ND (^ <4%)” and the AP result is “ND (^ <4%)”. Moreover, under setting [5], the AX entry was “ND (^ <4%)”, the CE result is on record as “ND (^ <4%)”, the HL entry was “ND (^ <4%)” and the MS result is reported as “ND (^ <4%)”. Under setting [5], the PS entry is “ND (^ <4%)”, the SH entry was “ND (^ <4%)” and the UK result was “+++ (≥49%)”.
On to `CNC1CCc2c(C)sc(C(F)(F)F)c2C1` (single isomer, unassigned; enantiomer 1) [Compound 104, N, 1-dimethyl-3-(trifluoromethyl)-4,5,6,7-tetrahydro-2-benzothiophen-5-amine hydrochloride enantiomer 1], for which, under setting [9], the minimal effective dose came to 3 mg/kg. Also, under setting [2], the AD result is on record as “ND (^ <4%)”, the AG result is recorded as “ND (^ <4%)”, the AN result is “ND (^ <4%)” and the AX result is “ND (^ <4%)”. For the same compound, under setting [2], the CE entry is listed as “ND (^ <4%)”, the HL result is “ND (^ <4%)”, the MS result was “ND (^ <4%)” and the PS result was “ND (^ <4%)”. The SH result under setting [2] is recorded as “ND (^ <4%)”. Under setting [10], the AP entry is “++ (≥24%)” and the UK result is “++ (≥24%)”.
